Laboratory results as given in PMC10447463, “Data-mining unveils structure–property–activity correlation of viral infectivity enhancing self-assembling peptides” (Nature Communications, 2023).
Read-outs that look alike come from different tables or passages of the source.

Tests used:
[1] = assay type: physicochemical; details: for ThT Cat. / ThT-Fluorescence (categorical): ThT-active if fluorescence at least twice the control
In short: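 Preformed peptide fibrils (1 mg/mL) mixed with 50 µM ThT in PBS, 15 min at RT, fluorescence ex 440/em 488 nm versus PBS blank, triplicates. Zeta potential: peptides at 1 mg/mL in PBS pH 7.4, aged 1 d at RT, diluted in 1 mM KCl, Smoluchowski from electrophoretic mobility.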

[2] = test system: HIV-1 infection of TZM-bl cells; assay: HIV-1 infectivity enhancement assay, β-galactosidase luminescence; assay type: cell-based; details: for Rel-EFC: infection relative to EF-C (QCKIKQIINMWQ = 1); for Log10 Infection Rel EFC: log10 of infection relative to EF-C; for Log Infectivity: Log10 infection relative to EF-C, asymmetric std dev errors; for Log Infectivity / Abs. Inf.: TZM-bl cells; for Log10 Infection Rel EF-C: HIV-1 infection of TZM-bl cells; for Abs. Inf. / RLU s-1: absolute infection rate, peptide 1.3 µM on cells, virus preincubated 10 min with fibrils, read 3 days post infection; for Log10 of Rel to EFC (Feb2021): Log10 of infection relative to EF-C; for Abs. Inf.: absolute HIV-1 infection signal, β-galactosidase luminescence
[3] = β-sheet content by ATR-FT-IR; assay type: physicochemical; details: for b -sheet / %: Fig. S7 panel A, β-sheet content by ATR-FT-IR
In short: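 Fluorescamine labelling (20 min RT, λex 365/λem 470 nm) of 3 kDa-MWCO filtrate and unfiltered fibril samples, redissolved in DMSO, gave conversion rate as 100 minus the percentage filtrate/original intensity, in triplicate. Secondary structure was quantified by ATR FT-IR on lyophilized 1 mg/mL fibrils, 64 scans.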

[4] = ThT fluorescence category, 1 if Rel. ThT >2
[5] = Fig. S7 panel A (plotted against β-sheet content)
[6] = Fig. S7 panel B (plotted against CR), rounded to two decimals
[7] = Log10 of infection rate relative to EF-C, Figure 3A source data
[8] = infection rate relative to EF-C, log10, data of Figure 2D
[9] = infection rate relative to EF-C, log10, source data of Figure 2C

Substance | Tht category (> 2 to blank = +) ([1]; Fig S10 panel D) | Tht category (> 2 to blank = +) ([1]; FigS12 panel A) | ThT Cat, ([1]; FigS12 panel B) | ThT Cat, ([1]; ThT category, 1 if Rel. ThT >2) | ThT Cat. [1, 4] | ThT Cat. / ThT-Fluorescence (categorical) [1] | Rel-EFC ([2]; 1.3 µM peptide) | Log10 Infection Rel EFC ([2]; 1.3 µM peptide) | Log Infectivity [2, 5] | Log10 Infection Rel EF-C [2, 7] | Log10 Infection Rel EF-C [2, 8] | Log10 Infection Rel EF-C [2, 9] | b -sheet / % [3] | Log10 of Rel to EFC (Feb2021) ([2]; all peptides of FigS16) | other results
CKIKQII | 1 (ThT. Cat is 1, if Rel. ThT >2) | 1 (ThT. Cat is 1, if Rel. ThT >2) | 1 (ThT. Cat is 1, if Rel. ThT >2) | 1 (ThT. Cat is 1, if Rel. ThT >2) | 1 (ThT. Cat is 1, if Rel. ThT >2) | 1 (ThT. Cat is 1, if Rel. ThT >2) | 0,04 | -1,38 | -1.379 | -1.38 | -1.379 | -1.379 | 25% | – | ThT Cat. ([1]; Fig S10 panel E): 1 (ThT. Cat is 1, if Rel. ThT >2); Log Infectivity [2, 6]: -1.38; Abs. Inf. / RLU s-1 ([2]; mean of triplicate): 796.7 RLU s-1; Abs. Infection at 0.26 µM ([2]; peptide 0.26 µM, mean of triplicate): 430
KIKIKIQINMWQ | 0 (ThT-inactive (N-Fold <2)) | – | – | 0 (ThT-inactive (N-Fold <2)) | – | 0 (ThT-inactive (N-Fold <2)) | 0,79 | -0,1 | -0.1048 | -0.1 | -0.1048 | -0.1048 | 39.61% | -0.1 | ThT Cat. ([1]; ThT category, 1 if Rel. ThT >2): 0 (ThT-inactive (N-Fold <2)); Abs. Inf. [2]: 20353.33333
KIKIQIRGD | 1 (ThT. Cat is 1, if Rel. ThT >2) | 1 (ThT. Cat is 1, if Rel. ThT >2) | 1 (ThT. Cat is 1, if Rel. ThT >2) | 1 (ThT. Cat is 1, if Rel. ThT >2) | 1 (ThT. Cat is 1, if Rel. ThT >2) | 1 (ThT. Cat is 1, if Rel. ThT >2) | 0,02 | -1,68 | -1.678 | -1.68 | -1.678 | -1.678 | 47.12% | – | –
KIKIKIKIWWWW | 1 (ThT. Cat is 1, if Rel. ThT >2) | – | – | 1 (ThT. Cat is 1, if Rel. ThT >2) | 1 (ThT. Cat is 1, if Rel. ThT >2) | 1 (ThT. Cat is 1, if Rel. ThT >2) | 0,59 | -0,23 | -0.2301 | -0.23 | -0.2301 | -0.2301 | 37.79% | -0.23 | Log10 of Rel to EFC (Feb2021) ([2]; second listing, peptides with TEM 2cat 0): -0.23
KIKIQINMWQRGD | 0 (ThT-inactive (N-Fold <2)) | 0 (ThT-inactive (N-Fold <2)) | 0 (ThT-inactive (N-Fold <2)) | 0 (ThT-inactive (N-Fold <2)) | – | 0 (ThT-inactive (N-Fold <2)) | 0,01 | -1,92 | -1.917 | -1.92 | -1.917 | -1.917 | 47.72% | – | ThT Cat. ([1]; ThT category, 1 if Rel. ThT >2): 0 (ThT-inactive (N-Fold <2)); Rel. ThT ([1]; n-fold ThT fluorescence vs control (PBS, 10% DMSO), 4 µL 1 mg/mL fibrils + 20 µL 50 µM ThT, 15 min RT, ex 440 / em 488 nm, triplicate): 1.5; Inf. rel. EF-C ([2]; HIV-1 infection relative to EF-C, Fig 23 plot, panels A and B, mean of 3 values): 0.008366; Inf. rel. EF-C ([2]; HIV-1 infection relative to EF-C, Fig 23 plot, single data point, replicate 1): 0.00461; Inf. rel. EF-C ([2]; HIV-1 infection relative to EF-C, Fig 23 plot, single data point, replicate 2): 0.009457; Inf. rel. EF-C ([2]; HIV-1 infection relative to EF-C, Fig 23 plot, single data point, replicate 3): 0.01103; Abs. Inf. [2]: 196.7; Abs. Inf. / RLU s-1 ([2]; mean of triplicate): 197 RLU s-1; Inf. rel. EF-C ([2]; n-fold infection vs virus only, relative to that of EF-C, 1.3 µM peptide): 0.01; ß-sheet / % ([3]; ATR-FT-IR of lyophilised 1 mg/mL PNF solution, peak integral ratio 1625-1635 cm-1, measured once): 48%
KFKFEFEF | 1 (ThT. Cat is 1, if Rel. ThT >2) | 1 (ThT. Cat is 1, if Rel. ThT >2) | 1 (ThT. Cat is 1, if Rel. ThT >2) | 1 (ThT. Cat is 1, if Rel. ThT >2) | 1 (ThT. Cat is 1, if Rel. ThT >2) | 1 (ThT. Cat is 1, if Rel. ThT >2) | 0,03 | -1,55 | -1.547 | -1.55 | -1.547 | -1.547 | 40.95% | – | –
CEIEIQINMWQ | 1 (ThT. Cat is 1, if Rel. ThT >2) | – | – | 1 (ThT. Cat is 1, if Rel. ThT >2) | 1 (ThT. Cat is 1, if Rel. ThT >2) | 1 (ThT. Cat is 1, if Rel. ThT >2) | 0,22 | -0,66 | -0.6602 | -0.66 | -0.6602 | -0.6602 | 49.9% | -0.66 | ThT Cat. ([1]; Fig S10 panel E): 1 (ThT. Cat is 1, if Rel. ThT >2); Log Infectivity [2, 6]: -0.66
